The source of these data is patent publication US20240285508A1, “METHOD AND COMPOSITION FOR IMPROVING THE APPEARANCE OF SKIN” (The Procter & Gamble Company, priority 2023, published 2024).

The test system of experiment [1] is gelatin. The experiment in a line: Advanced Glycation End Product Assay (AGE Assay), fluorescence intensity (FLR, glycation) readout. The experiment is classed as biochemical. Conditions: 24 hours. The method, then:
(§1) The AGE Assay provides an in vitro method of determining how a test agent impacts glycation. In particular, a material of interest can be applied to gelatin, which acts as a surrogate for collagen (i.e., a heterogeneous mixture of high-average-molecular-mass, water-soluble proteins present in collagen), at neutral pH range. A glycating reagent is added to the gelatin matrix to initialize glycation reaction. The resulting AGEs detected by a spectrophotometer. When testing a material of interest, such as lactobionic acid and/or white water lily extract is added to the gelatin sample, it reacts with the proteins in the gelatin, much in the same way as it would with collagen. Glycation reaction will be initiated when glycating reagent is added into this material and gelatin matrix and will produce AGEs. A positive (pos) glycation control group is set up the same way as testing material groups to contain gelatin and glycating reagent but less any treatment material. The positive control group depicts how much glycation and yellowness can be formed without perturbation by any treatment material. The spectrophotometer detects the fluorescence intensity (“FLR”) or yellowness (b*) associated with the resulting AGEs, which can then be correlated to the amount of glycation that occurs in skin. Lower b* and FLR values correspond to less AGEs, and thus less glycation.
(§2) Three replicates of each test samples are prepared in a 96-well plate (e.g., a FALCON brand 96-well tissue culture plate or equivalent) at equal and defined volume. The plate(s) containing the test samples are placed in a standard cell culture incubator (e.g., THERMO SCIENTIFIC FORMA brand incubator available from Fisher Scientific, Waltham, MA or equivalent) and incubated for the duration of the test at 37° C. with 5% CO2 and 95% relative humidity. Fluorescence intensity (FLR) and yellowness are measured at the start of test (time=0) and monitored for 24 hours. To measure FLR or b*, the plate(s) containing the test samples are removed from the incubator and placed in a SPECTRAMAX Plus brand spectrophotometer (available from Molecular Devices, Sunnyvale, California) or equivalent. To detect fluorescence intensity (“FLR”), the spectrophotometer is set at 400/465 nm (ex/em). To detect yellowness (b*), the spectrophotometer is set to collect absorbance spectrum from 350 nm to 750 nm in 10 nm increments. The absorbance spectra from the yellowness measurement are then converted to L*a*b* values by a computer using suitable conversion software.
(§3) The change in fluorescence intensity (“ΔFLR”) is determined by comparing the FLR of a well at a sampling time point to the initial FLR at time=0. The change in yellowness (“Δb*”) at a particular time point is determined by comparing the initial b* value at time=0 to the b* value at the time point of interest. To determine the relative amount of glycation or yellowness formed due to a treatment effect compared to the positive glycation control group, which doesn't contain any active treatment, the ΔFLR and Δb* values from a treatment group is normalized against the corresponding values from the positive glycation control group (pos glycation) according to the following equation: […]
(§4) The test samples were prepared in triplicate for each testing group on a 96-well plate with 250 μl volume per well. Each well contains 2.25 mg gelatin (available from Sigma® as Catalog #G1393), the testing material(s) diluted to desired concentration, 40 mM DL-Glyceraldehyde (available from Sigma®, Catalog #G5001-5G), and a sufficient quantity of Dulbecco's phosphate buffered saline (“DPBS”) (available from Gibco's, Catalog #14190-144). The vehicle control contained 2.25 mg gelatin and a sufficient quantity of DPBS. The positive glycation control contained 2.25 mg gelatin, 40 mM DL-glyceraldehyde and DPBS.
(§5) The average glycation, ΔFLR, and yellowness, Δb*, were determined for each sample according to the AGE Assay described herein. The duration of the test was 24 hours. […]

Experiment [2] concerns gelatin. The experiment in a line: Advanced Glycation End Product Assay (AGE Assay), yellowness (b*) readout. As to conditions: 24 hours; for % Δb* (yellowness) from a treatment vs positive glycation control / Convert to % Δb* inhibition (100%-% Δb*) / Convert to % Δb* inhibition (100-% Δb*): samples 1-3. The experiment is classed as biochemical. The method, then:
as §1, §2, §3, §4, §5

Setting [3] is: 0.101% lactobionic acid, Table 4, samples 1-3.
Where [4] appears, read: 0.2% lactobionic acid, Table 2, samples 1-3.
Setting [5] is: 0.101% lactobionic acid, Table 3.

Molecules are shown by their SMILES. Several values for one entry are separate records, joined by “and”; a condition that tells them apart may be missing. Identical values can stand only once.

For the compound `O=C(O)[C@H](O)[C@@H](O)[C@H](O[C@@H]1O[C@H](CO)[C@H](O)[C@H](O)[C@H]1O)[C@H](O)CO` [LBA, lactobionic acid], the “Mean % ΔFLR inhibition for each group” value in the experiment on gelatin [1] (0.1% LBA, Table 2) was found to be 24%; in the experiment on gelatin [1] (0.1% LBA, Table 6), 30%; in the experiment on gelatin [1] (0.101% lactobionic acid, Table 4), 27%; in the experiment on gelatin [1] (0.2% lactobionic acid, Table 2) it was 44%. The “% ΔFLR (glycation) normalized vs positive glycation control” value was 77% and 75% in the experiment on gelatin [1] (0.1% LBA, Table 2, samples 1-3); 73% and 74% in the experiment with gelatin [1] (setting [3]); 55% and 56% in the experiment with gelatin [1] (setting [4]). Further, the “Convert to % ΔFLR inhibition (100-% ΔFLR)” value was 23% and 25% with gelatin [1] (0.1% LBA, Table 2, samples 1-3); 31% and 29% and 30% in the experiment on gelatin [1] (0.1% LBA, Table 6, samples 1-3); 27% and 26% in the experiment on gelatin [1] (setting [3]); 45% and 44% with gelatin [1] (setting [4]). Moreover, the “% ΔFLR (glycation) normalized vs positive glycation ctrl” value in the experiment on gelatin [1] (0.1% LBA, Table 6, samples 1-3) was 69% and 71% and 70%. Also, the “Mean % Δb* inhibition for each group” value was 27% in the experiment with gelatin [2] (0.1% LBA, Table 1); 32% with gelatin [2] (0.1% LBA, Table 5); 32% in the experiment on gelatin [2] (setting [5]); 49% with gelatin [2] (0.2% lactobionic acid, Table 1). Also, the “% Δb* (yellowness) from a treatment vs positive glycation control” value in the experiment with gelatin [2] (0.1% LBA, Table 1) was 73%; in the experiment with gelatin [2] (0.1% LBA, Table 5) it was 68% and 69% and 67%; with gelatin [2] (setting [5]) it was 68%; in the experiment on gelatin [2] (0.2% lactobionic acid, Table 1), 50% and 53% and 51%. For the same compound, the “Convert to % Δb* inhibition (100%-% Δb*)” value is 27% in the experiment on gelatin [2] (0.1% LBA, Table 1); 50% and 47% and 49% in the experiment with gelatin [2] (0.2% lactobionic acid, Table 1). Moreover, the “Convert to % Δb* inhibition (100-% Δb*)” value in the experiment with gelatin [2] (0.1% LBA, Table 5) is 32% and 31% and 33%; in the experiment on gelatin [2] (setting [5]), 32%.
